In patent US20250215029A1 (Recludix Pharma, Inc., priority 2022, published 2025) one finds IC50 data, which are given here for 17 compounds.

Assay [1] has as its target T1, Recombinant STAT3 protein (STAT3 (G127-I722)) (Homo sapiens, UniProt P40763).
T1 construct: Recombinant STAT3 protein (STAT3 (G127-I722))
Briefly: STAT3 Fluorescence Polarization (FP) Assay. Format: binding. The conditions noted are these: STAT3 (G127-I722) 25 nM, probe 5-FAM-GpYLPQTV-NH2 2 nM, 45-minute incubation; read-out: STAT3 (FP assay IC50 class). The method, boiled down: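 Displacement of a 2 nM 5-FAM-labelled pY peptide (GpYLPQTV) from 25 nM recombinant STAT3 (G127-I722) was monitored by fluorescence polarization. Incubation lasted 45 min at room temperature in pH 7.4 HEPES buffer containing 1% DMSO.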

Assay [2] addresses T2, Recombinant STAT6 protein (STAT6 (W123-T658)) (Homo sapiens, UniProt P42226).
T2 construct: Recombinant STAT6 protein (STAT6 (W123-T658))
T2 sequence (P42226 123-658): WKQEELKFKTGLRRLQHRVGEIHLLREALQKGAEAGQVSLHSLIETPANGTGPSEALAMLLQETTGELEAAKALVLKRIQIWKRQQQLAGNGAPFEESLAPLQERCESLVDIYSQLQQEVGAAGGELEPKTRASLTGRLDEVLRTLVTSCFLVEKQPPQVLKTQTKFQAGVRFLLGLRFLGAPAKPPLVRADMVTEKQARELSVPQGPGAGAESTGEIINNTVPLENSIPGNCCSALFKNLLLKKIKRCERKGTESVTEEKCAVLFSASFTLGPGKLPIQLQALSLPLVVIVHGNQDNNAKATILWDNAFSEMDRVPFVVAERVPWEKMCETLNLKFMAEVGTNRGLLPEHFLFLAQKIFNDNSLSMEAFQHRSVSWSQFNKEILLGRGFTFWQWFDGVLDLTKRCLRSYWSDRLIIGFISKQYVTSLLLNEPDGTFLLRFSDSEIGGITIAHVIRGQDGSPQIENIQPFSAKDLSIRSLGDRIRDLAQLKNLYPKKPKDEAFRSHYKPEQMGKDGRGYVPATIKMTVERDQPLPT
Description: STAT6 Fluorescence Polarization (FP) Assay. Format: binding. Particulars: STAT6 (W123-T658) 250 nM, probe 5-FAM-Ap[…]-NH2 2 nM, 45-minute incubation; read-out: STAT6 (FP assay IC50 class). The method, boiled down:
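STAT6 (W123-T658) at 250 nM was mixed with 2 nM 5-FAM-labeled phosphotyrosine peptide probe in HEPES pH 7.4 buffer with NaCl, EDTA, Tween 20 and DTT, then added to serially diluted compounds at 1% DMSO final. Polarization was read after 45 min at room temperature; IC50 came from nonlinear regression of mP versus log concentration.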
(Fluorescence polarisation rises when a labelled molecule tumbles more slowly, as on binding a larger partner.)

T1 sequence (P40763 127-722): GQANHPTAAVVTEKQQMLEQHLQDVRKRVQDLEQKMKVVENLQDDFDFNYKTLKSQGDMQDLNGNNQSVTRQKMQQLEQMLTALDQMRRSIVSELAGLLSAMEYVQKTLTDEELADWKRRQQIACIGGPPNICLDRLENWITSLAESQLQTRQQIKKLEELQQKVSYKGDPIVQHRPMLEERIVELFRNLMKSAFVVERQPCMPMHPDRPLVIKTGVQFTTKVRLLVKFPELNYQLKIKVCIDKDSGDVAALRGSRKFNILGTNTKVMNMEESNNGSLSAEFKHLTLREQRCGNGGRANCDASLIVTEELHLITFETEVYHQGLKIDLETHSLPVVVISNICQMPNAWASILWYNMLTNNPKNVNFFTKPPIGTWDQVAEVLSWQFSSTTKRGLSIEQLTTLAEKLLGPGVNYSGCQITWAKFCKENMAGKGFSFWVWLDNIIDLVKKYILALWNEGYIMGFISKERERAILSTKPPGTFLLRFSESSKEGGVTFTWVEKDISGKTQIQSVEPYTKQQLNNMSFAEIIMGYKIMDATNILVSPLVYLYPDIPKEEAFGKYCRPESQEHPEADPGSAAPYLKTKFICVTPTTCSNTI

The IC50 is the concentration that inhibits the measured activity by half. Consider `CC1(C)CC(c2ccccc2)CN1C(=O)[C@@H]1CC[C@@H]2CCCC[C@H](NC(=O)c3cc4cc(C(F)(F)P(=O)(O)O)ccc4s3)C(=O)N21` (stereo partly drawn) [Compound 813, ((2-(((3S,6S,10aS)-3-(2,2-dimethyl-4-phenylpyrrolidine-1-carbonyl)-5-oxodecahydropyrrolo [1,2-a]azocin-6-yl)carbamoyl)benzo [b]thiophen-5-yl)difluoromethyl) phosphonic acid], for which the IC50 in assay [1] lay in the range of 1 to 10 µM; in assay [2], 0.3 to 3 µM.

Regarding `CC1(C)C[C@@H](c2ccccc2)CN1C(=O)[C@@H]1CC[C@@H]2CCCC[C@H](NC(=O)c3cc4cc(C(F)(F)P(=O)(O)O)ccc4s3)C(=O)N21` [Compound 814, ((2-(((3S,6S,10aS)-3-((S)-2,2-dimethyl-4-phenylpyrrolidine-1-carbonyl)-5-oxodecahydropyrrolo [1,2-a]azocin-6-yl)carbamoyl)benzo [b]thiophen-5-yl)difluoromethyl) phosphonic acid], the IC50 in assay [1] lay in the range of 1 to 10 µM; in assay [2] it was 0.3 to 3 µM.

Turning to `CC1(C)C[C@H](c2ccccc2)CN1C(=O)[C@@H]1CC[C@@H]2CCCC[C@H](NC(=O)c3cc4cc(C(F)(F)P(=O)(O)O)ccc4s3)C(=O)N21` [Compound 815, ((2-(((3S,6S,10aS)-3-((R)-2,2-dimethyl-4-phenylpyrrolidine-1-carbonyl)-5-oxodecahydropyrrolo [1,2-a]azocin-6-yl)carbamoyl)benzo [b]thiophen-5-yl)difluoromethyl) phosphonic acid], the IC50 in assay [1] is 1 to 10 µM; in assay [2] it was 0.3 to 3 µM.

As to `O=C(N[C@H]1CCCC[C@H]2CC[C@@H](C(=O)N3CC(c4ccc(=O)[nH]c4)C3)N2C1=O)c1cc2cc(C(F)(F)P(=O)(O)O)ccc2s1` [Compound 816, (difluoro(2-(((3S,6S,10aS)-5-oxo-3-(3-(6-oxo-1,6-dihydropyridin-3-yl)azetidine-1-carbonyl)decahydropyrrolo[1,2-a]azocin-6-yl)carbamoyl)benzo [b]thiophen-5-yl)methyl) phosphonic acid], the values for the IC50 in assay [1] and in assay [2] were 0.1 to 1 µM and 3 to 30 µM, respectively.

Take `O=C(N[C@H]1CCC[C@H]2CC[C@@H](C(=O)N3CC(c4ncc(C5CC5)cn4)C3)N2C1=O)c1cc2cc(C(F)(F)P(=O)(O)O)ccc2s1` [Compound 817, ((2-(((3S,6S,9aS)-3-(3-(5-cyclopropyl-pyrimidin-2-yl)azetidine-1-carbonyl)-5-oxooctahydro-1H-pyrrolo[1,2-a]azepin-6-yl)carbamoyl)benzo [b]thiophen-5-yl)difluoromethyl) phosphonic acid]: the IC50 fell in the range of 1 to 10 µM in assay [1] and 3 to 30 µM in assay [2].

Regarding `Cc1ccnnc1C1CN(C(=O)[C@@H]2CC[C@@H]3CCC[C@H](NC(=O)c4cc5cc(C(F)(F)P(=O)(O)O)ccc5s4)C(=O)N32)C1` [Compound 818, (difluoro(2-(((3S,6S,9aS)-3-(3-(4-methylpyridazin-3-yl)azetidine-1-carbonyl)-5-oxooctahydro-1H-pyrrolo[1,2-a]azepin-6-yl)carbamoyl)benzo [b]thiophen-5-yl)methyl) phosphonic acid], the IC50 lay within 0.1 to 1 µM in assay [1] and 3 to 30 µM in assay [2].

For the compound `O=C(N[C@H]1CCC[C@H]2CC[C@@H](C(=O)N3CC(c4cnccc4C(F)F)C3)N2C1=O)c1cc2cc(C(F)(F)P(=O)(O)O)ccc2s1` [Compound 819, ((2-(((3S,6S,9aS)-3-(3-(4-(difluoromethyl)pyridin-3-yl)azetidine-1-carbonyl)-5-oxooctahydro-1H-pyrrolo[1,2-a]azepin-6-yl)carbamoyl)benzo [b]thiophen-5-yl)difluoromethyl) phosphonic acid], the values for the IC50 in assay [1] and in assay [2] were 0.1 to 1 µM and 0.3 to 3 µM, respectively.

For `Cc1ccc(C#N)nc1C1CN(C(=O)[C@@H]2CC[C@@H]3CCC[C@H](NC(=O)c4cc5cc(C(F)(F)P(=O)(O)O)ccc5s4)C(=O)N32)C1` [Compound 820, ((2-(((3S,6S,9aS)-3-(3-(6-cyano-3-methylpyridin-2-yl)azetidine-1-carbonyl)-5-oxooctahydro-1H-pyrrolo[1,2-a]azepin-6-yl)carbamoyl)benzo [b]thiophen-5-yl)difluoromethyl) phosphonic acid], the IC50 in assay [1] was in the range of 0.1 to 1 µM; in assay [2], 3 to 30 µM.

Turning to `O=C(N[C@H]1CCC[C@H]2CC[C@@H](C(=O)N3CC(n4ncc5ccccc54)C3)N2C1=O)c1cc2cc(C(F)(F)P(=O)(O)O)ccc2s1` [Compound 821, ((2-(((3S,6S,9aS)-3-(3-(1H-indazol-1-yl)azetidine-1-carbonyl)-5-oxooctahydro-1H-pyrrolo[1,2-a]azepin-6-yl)carbamoyl)benzo [b]thiophen-5-yl)difluoromethyl) phosphonic acid], the half-inhibitory concentration (IC50) in assay [1] is 0.1 to 1 µM; in assay [2], 0.3 to 3 µM.

`COC1(CS(C)(=N)=O)CN(C(=O)[C@@H]2CC[C@@H]3CCC[C@H](NC(=O)c4cc5cc(C(F)(F)P(=O)(O)O)ccc5s4)C(=O)N32)C1` (stereo partly drawn) [Compound 822, (difluoro(2-(((3S,6S,9aS)-3-(3-methoxy-3-((S-methylsulfonimidoy 1)methyl)azetidine-1-carbonyl)-5-oxooctahydro-1H-pyrrolo[1,2-a]azepin-6-yl)carbamoyl)benzo [b]thiophen-5-yl)methyl) phosphonic acid]: the IC50 in assay [1] was in the range of 0.1 to 1 µM; in assay [2] it was 3 to 30 µM.

For `CC(C)OC1(c2nncn2C)CN(C(=O)[C@@H]2CC[C@@H]3CCC[C@H](NC(=O)c4cc5cc(C(F)(F)P(=O)(O)O)ccc5s4)C(=O)N32)C1` [Compound 823, (difluoro(2-(((3S,6S,9aS)-3-(3-isopropoxy-3-(4-methyl-4H-1,2,4-triazol-3-yl)azetidine-1-carbonyl)-5-oxooctahydro-1H-pyrrolo[1,2-a]azepin-6-yl)carbamoyl)benzo [b]thiophen-5-yl)methyl) phosphonic acid], the results for the IC50 in assay [1] and in assay [2] were 0.1 to 1 µM and 3 to 30 µM, respectively.

Consider `N#Cc1ccnc(C2CN(C(=O)[C@@H]3CC[C@@H]4CCC[C@H](NC(=O)c5cc6cc(C(F)(F)P(=O)(O)O)ccc6s5)C(=O)N43)C2)n1` [Compound 824, ((2-(((3S,6S,9aS)-3-(3-(4-cyanopyrimidin-2-yl)azetidine-1-carbonyl)-5-oxooctahydro-1H-pyrrolo[1,2-a]azepin-6-yl)carbamoyl)benzo [b]thiophen-5-yl)difluoromethyl) phosphonic acid], for which the IC50 is under 0.1 µM in assay [1] and 0.3 to 3 µM in assay [2].

Take `O=C(N[C@H]1CCCC[C@H]2CC[C@@H](C(=O)NCc3ccc4nccnc4c3)N2C1=O)c1cc2cc(C(F)(F)P(=O)(O)O)ccc2s1` [Compound 825, (difluoro(2-(((3S,6S,10aS)-5-oxo-3-((quinoxalin-6-ylmethyl)carbamoyl)decahydropyrrolo [1,2-a]azocin-6-yl)carbamoyl)benzo [b]thiophen-5-yl)methyl) phosphonic acid]: the half-inhibitory concentration (IC50) is 0.1 to 1 µM in assay [1] and 0.3 to 3 µM in assay [2].

With `COc1cccnc1C1CN(C(=O)[C@@H]2CC[C@@H]3CCC[C@H](NC(=O)c4cc5cc(C(F)(F)P(=O)(O)O)ccc5s4)C(=O)N32)C1` [Compound 826, (difluoro(2-(((3S,6S,9aS)-3-(3-(3-methoxypyridin-2-yl)azetidine-1-carbonyl)-5-oxooctahydro-1H-pyrrolo[1,2-a]azepin-6-yl)carbamoyl)benzo [b]thiophen-5-yl)methyl) phosphonic acid], the values for the IC50 in assay [1] and in assay [2] were 0.1 to 1 µM and 0.3 to 3 µM, respectively.

`CN=S(C)(=O)CC1(OC)CN(C(=O)[C@@H]2CC[C@@H]3CCC[C@H](NC(=O)c4cc5cc(C(F)(F)P(=O)(O)O)ccc5s4)C(=O)N32)C1` (stereo partly drawn) [Compound 827, ((2-(((3S,6S,9aS)-3-(3-((N,S-dimethyl-sulfonimidoyl)methyl)-3-methoxyazetidine-1-carbonyl)-5-oxooctahydro-1H-pyrrolo[1,2-a]azepin-6-yl)carbamoyl)benzo [b]thiophen-5-yl)difluoromethyl) phosphonic acid]: the IC50 in assay [1] fell in the range of 0.1 to 1 µM; in assay [2], 3 to 30 µM.

Take `O=C(N[C@H]1CCCC[C@H]2CC[C@@H](C(=O)NCc3ccn4ccnc4c3)N2C1=O)c1cc2cc(C(F)(F)P(=O)(O)O)ccc2s1` [Compound 828]: the IC50 in assay [1] is under 0.1 µM; in assay [2], 0.3 to 3 µM.

In the case of `O=C(/C=C/c1ccc(C(F)(F)P(=O)(O)O)cc1)N[C@H]1CCCC[C@H]2CC[C@@H](C(=O)N3Cc4cnn(-c5ccccc5)c4C3)N2C1=O` [Compound 829, (difluoro(4-((E)-3-oxo-3-(((3S,6S,10aS)-5-oxo-3-(1-phenyl-1,4,5,6-tetrahydropyrrolo[3,4-c]pyrazole-5-carbonyl)decahydropyrrolo[1,2-a]azocin-6-yl)amino)prop-1-en-1-yl)phenyl)methyl) phosphonic acid], the 50% inhibitory concentration (IC50) in assay [1] is 1 to 10 µM; in assay [2], 0.3 to 3 µM.
